Columns and labels:
Assay type in all cases: biochemical
[1] = target: T1, cathepsin B (Homo sapiens, UniProt P07858); experiment: Cathepsin B enzyme inhibition in vitro (kinetic fluorescence assay); settings: cathepsin B isolated from human liver vs calpain I
T1 construct: cathepsin B—isolated from human liver (Calbiochem #219362); purchased Calbiochem 219362; host or cells: human liver (tissue-derived)
How it was run: (§1)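 Cathepsin B (0.25 nM, human liver) with 100 μM Z-Phe-Arg-AMC; L (1 nM, human liver) with 2 μM Z-Phe-Arg-AMC; S (0.5 nM, recombinant) with 20 μM Z-Val-Val-Arg-AMC. pH 6.0 MES buffer, 2.5 mM L-cysteine, room temperature. Kinetic fluorescence (ex 390/em 460 nm); apparent Ki from IC50 by Cheng-Prusoff.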

[2] = target: T2, cathepsin S (Homo sapiens, UniProt P25774); experiment: Cathepsin S enzyme inhibition in vitro (kinetic fluorescence assay); settings: recombinant human cathepsin S vs calpain I
T2 construct: purchased Calbiochem 219343; host or cells: E. coli
How it was run: as §1

[3] = target: T3, cathepsin K (Homo sapiens, UniProt P43235); experiment: Cathepsin K enzyme inhibition in vitro (kinetic fluorescence assay); settings: cathepsin K activated from recombinant human procathepsin K vs calpain I
T3 construct: purchased Calbiochem 342001; host or cells: E. coli
T3 sequence (P43235 115-329): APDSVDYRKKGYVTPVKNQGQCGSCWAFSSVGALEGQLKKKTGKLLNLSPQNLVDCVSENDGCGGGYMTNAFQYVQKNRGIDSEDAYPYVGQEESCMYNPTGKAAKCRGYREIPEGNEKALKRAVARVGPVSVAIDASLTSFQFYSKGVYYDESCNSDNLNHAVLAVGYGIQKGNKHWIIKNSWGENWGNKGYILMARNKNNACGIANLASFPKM

[4] = target: T4, cathepsin L (Homo sapiens, UniProt P07711); experiment: Cathepsin L enzyme inhibition in vitro (kinetic fluorescence assay); settings: cathepsin L isolated from human liver vs calpain I
T4 construct: cathepsin L—isolated from human liver (Calbiochem #219402); purchased Calbiochem 219402; host or cells: human liver (tissue-derived)
How it was run: as §1

T2 sequence (P25774 115-331): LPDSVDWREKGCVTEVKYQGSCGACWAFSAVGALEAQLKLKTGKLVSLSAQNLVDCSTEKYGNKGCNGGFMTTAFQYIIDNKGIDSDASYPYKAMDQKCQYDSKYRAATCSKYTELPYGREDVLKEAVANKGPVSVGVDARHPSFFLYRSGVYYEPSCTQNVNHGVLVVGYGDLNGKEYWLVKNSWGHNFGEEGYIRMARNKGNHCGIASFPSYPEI
T4 sequence (P07711 114-333): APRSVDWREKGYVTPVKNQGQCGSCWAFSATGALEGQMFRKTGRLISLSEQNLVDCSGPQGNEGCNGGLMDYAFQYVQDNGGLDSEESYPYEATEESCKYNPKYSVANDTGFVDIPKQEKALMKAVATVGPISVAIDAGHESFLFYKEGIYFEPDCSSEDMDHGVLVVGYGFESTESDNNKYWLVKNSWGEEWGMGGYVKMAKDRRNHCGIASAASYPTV

SMILES	Sel cat. B: Ki(cathepsin B)/Ki(calpain) ratio [1]	Sel cat. S: Ki(cathepsin S)/Ki(calpain) ratio [2]	Sel cat. K: Ki(cathepsin K)/Ki(calpain) ratio [3]	Sel cat. L: Ki(cathepsin L)/Ki(calpain) ratio [4]
COc1ccc2c(c1)-c1nn(-c3ncccc3C(=O)NC(Cc3ccccc3)C(=O)C(N)=O)cc1CO2 (stereo not drawn) [Example 183, N-[3-Aamino-2,3-dioxo-1-(phenylmethyl)propyl]-2-[8-(methyloxy)chromeno[4,3-c]pyrazol-2(4H)-yl]pyridine-3-carboxamide]	+ (+ means 10≦Ki(cathepsin B)/Ki(calpain)<30)	++ (++ means a Ki(cathepsin S)/Ki(calpain) ratio of ≧100)	+ (+ means 10≦Ki(cathepsin K)/Ki(calpain)<30)	++ (++ means a Ki(cathepsin L)/Ki(calpain) ratio of ≧50)
NC(=O)C(=O)C(Cc1ccccc1)NC(=O)c1cccnc1-n1ccc(-c2ccccc2C(F)(F)F)n1 (stereo not drawn) [Example 72, N-(3-Amino-1-benzyl-2,3-dioxopropyl)-2-{3-[2-(trifluoromethyl)phenyl]-1H-pyrazol-1-yl}nicotinamide]	+ (+ means 10≦Ki(cathepsin B)/Ki(calpain)<30)	++ (++ means a Ki(cathepsin S)/Ki(calpain) ratio of ≧100)	+ (+ means 10≦Ki(cathepsin K)/Ki(calpain)<30)	+ (+ means 30≦Ki(cathepsin L)/Ki(calpain)<50)
COc1c(C)cc(C)cc1-c1ccn(-c2ncccc2C(=O)NC(Cc2ccccc2)C(=O)C(N)=O)n1 (stereo not drawn) [Example 121, N-[3-Amino-2,3-dioxo-1-(phenylmethyl)propyl]-2-{3-[3,5-dimethyl-2-(methyloxy)phenyl]-1H-pyrazol-1-yl}pyridine-3-carboxamide]	++ (++ means a Ki(cathepsin B)/Ki(calpain) ratio of ≧30)	++ (++ means a Ki(cathepsin S)/Ki(calpain) ratio of ≧100)	++ (++ means a Ki(cathepsin K)/Ki(calpain) ratio of ≧30)	++ (++ means a Ki(cathepsin L)/Ki(calpain) ratio of ≧50)
COc1ccc(F)cc1-c1ccn(-c2ncccc2C(=O)NC(Cc2ccccc2)C(=O)C(N)=O)n1 (stereo not drawn) [Example 130, N-[3-Amino-2,3-dioxo-1-(phenylmethyl)propyl]-2-{3-[5-fluoro-2-(methyloxy)phenyl]-1H-pyrazol-1-yl}pyridine-3-carboxamide]	++ (++ means a Ki(cathepsin B)/Ki(calpain) ratio of ≧30)	++ (++ means a Ki(cathepsin S)/Ki(calpain) ratio of ≧100)	++ (++ means a Ki(cathepsin K)/Ki(calpain) ratio of ≧30)	++ (++ means a Ki(cathepsin L)/Ki(calpain) ratio of ≧50)
NC(=O)C(=O)C(Cc1ccccc1)NC(=O)c1cccnc1-n1cc2c(n1)-c1ccccc1S(=O)(=O)C2 (stereo not drawn) [Example 174, N-[3-Amino-2,3-dioxo-1-(phenylmethyl)propyl]-2-(5,5-dioxidothiochromeno[4,3-c]pyrazol-2(4H)-yl)pyridine-3-carboxamide]	+ (+ means 10≦Ki(cathepsin B)/Ki(calpain)<30)	++ (++ means a Ki(cathepsin S)/Ki(calpain) ratio of ≧100)	+ (+ means 10≦Ki(cathepsin K)/Ki(calpain)<30)	++ (++ means a Ki(cathepsin L)/Ki(calpain) ratio of ≧50)
NC(=O)C(=O)C(Cc1ccccc1)NC(=O)c1cccnc1-n1ccc(-c2c(Cl)cccc2Cl)n1 (stereo not drawn) [Example 95, N-[3-Amino-2,3-dioxo-1-(phenylmethyl)propyl]-2-[3-(2,6-dichlorophenyl)-1H-pyrazol-1-yl]pyridine-3-carboxamide]	++ (++ means a Ki(cathepsin B)/Ki(calpain) ratio of ≧30)	++ (++ means a Ki(cathepsin S)/Ki(calpain) ratio of ≧100)	++ (++ means a Ki(cathepsin K)/Ki(calpain) ratio of ≧30)	++ (++ means a Ki(cathepsin L)/Ki(calpain) ratio of ≧50)
